{"source": "ChEMBL document CHEMBL2429766", "about": "“Keap calm, and carry on covalently” (J Med Chem, 2013)", "key": {"[1]": {"assay": "Antiinflammatory activity in mouse macrophages assessed as inhibition of IFN-gamma-induced nitric oxide production after 48 hrs by Griess method", "assay_type": "functional, cell-based", "conditions": "Macrophage"}, "[2]": {"target": "NAD(P)H dehydrogenase [quinone] 1 (Mus musculus) (UniProt Q64669)", "sequence (Q64669 whole entry)": "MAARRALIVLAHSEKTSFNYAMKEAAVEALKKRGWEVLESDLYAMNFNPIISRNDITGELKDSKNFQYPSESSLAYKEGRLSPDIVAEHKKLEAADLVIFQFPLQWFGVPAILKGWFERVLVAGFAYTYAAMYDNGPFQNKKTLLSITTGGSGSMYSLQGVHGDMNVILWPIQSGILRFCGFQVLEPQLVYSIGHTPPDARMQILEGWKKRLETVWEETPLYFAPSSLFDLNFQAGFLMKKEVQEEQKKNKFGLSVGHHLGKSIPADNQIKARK", "assay": "Induction of NQO1 activity in mouse hepatoma cells", "assay_type": "cell-based"}, "[3]": {"target": "NAD(P)H dehydrogenase [quinone] 1 (Mus musculus) (UniProt Q64669)", "assay": "Induction of NQO1 activity in mouse Hepa-1c1c7 cells after 48 hrs by Prochaska method", "assay_type": "cell-based"}, "[4]": {"assay": "Cytotoxicity against mouse Hepa-1c1c7 cells after 48 hrs", "assay_type": "cell-based", "conditions": "read-out: LD50"}}, "note": "pIC50: −log10 of the molar value."}
{"smiles": "CC1(C)CC[C@]2(C(=O)O)CC[C@]3(C)C(=CC[C@H]4C3(C)CC[C@H]3C(C)(C)C(=O)C(O)=C[C@@]34C)[C@@H]2C1", "note": "(single isomer, unassigned)", "values": [{"measurement": "pIC50", "setting": "[1]", "result": 4.43}]}
{"smiles": "CC(=O)[C@H]1CC2CC1C[C@@H]2N=C=S", "note": "(stereo not given in full)", "values": [{"measurement": "CD", "setting": "[2]", "result": 0.4, "unit": "µM"}]}
{"smiles": "CC(=O)CCCCN=C=S", "values": [{"measurement": "CD", "setting": "[2]", "result": 0.2, "unit": "µM"}]}
{"smiles": "CCCN(CCCC[S+](C)[O-])C(=O)[S+]([O-])CC", "note": "(stereo not given)", "values": [{"measurement": "CD", "setting": "[3]", "result": 35, "unit": "µM"}, {"measurement": "CC50 at 48 h", "setting": "[4]", "result": "> 200", "unit": "µM"}]}
{"smiles": "CC1(C)CC[C@]2(C(=O)O)CC[C@]3(C)C(=CC[C@@H]4[C@@]5(C)CC[C@H](O)C(C)(C)[C@@H]5CC[C@]43C)[C@@H]2C1", "note": "[OLEANOLIC_ACID]", "values": [{"measurement": "pIC50", "setting": "[1]", "result": "< 4.40"}]}
{"smiles": "COC(=O)[C@H]1CC2CC1[C@H](N=C=S)C2", "note": "(stereo not given in full)", "values": [{"measurement": "CD", "setting": "[2]", "result": 1.6, "unit": "µM"}]}
{"smiles": "CC[S+]([O-])C(=O)N(CCCC[S+](C)[O-])Cc1ccc(F)cc1F", "note": "(stereo not given)", "values": [{"measurement": "CD", "setting": "[3]", "result": 7.3, "unit": "µM"}, {"measurement": "CC50 at 48 h", "setting": "[4]", "result": "> 50", "unit": "µM"}]}
{"smiles": "CC[S+]([O-])C(=O)N(CCCC[S+](C)[O-])Cc1ccc(-c2ccccc2)cc1", "note": "(stereo not given)", "values": [{"measurement": "CD", "setting": "[3]", "result": 2.8, "unit": "µM"}, {"measurement": "CC50 at 48 h", "setting": "[4]", "result": 16, "unit": "µM"}]}
{"smiles": "C[S@+]([O-])CCCCN=C=S", "values": [{"measurement": "CD", "setting": "[2]", "result": 0.2, "unit": "µM"}]}
{"smiles": "CC(O)[C@H]1CC2CC1C[C@@H]2N=C=S", "note": "(stereo not given in full)", "values": [{"measurement": "CD", "setting": "[2]", "result": 0.5, "unit": "µM"}]}
{"smiles": "N#C[C@H]1CC2CC1C[C@@H]2N=C=S", "note": "(stereo not given in full)", "values": [{"measurement": "CD", "setting": "[2]", "result": 0.6, "unit": "µM"}]}
{"smiles": "CC[S+]([O-])C(=O)N(CCCC[S+](C)[O-])C1CCCCC1", "note": "(stereo not given)", "values": [{"measurement": "CD", "setting": "[3]", "result": 64, "unit": "µM"}, {"measurement": "CC50 at 48 h", "setting": "[4]", "result": "> 200", "unit": "µM"}]}
{"smiles": "N#CCCCCN=C=S", "values": [{"measurement": "CD", "setting": "[2]", "result": 2, "unit": "µM"}]}
{"smiles": "CCCCC(=O)CCCCN=C=S", "values": [{"measurement": "CD", "setting": "[2]", "result": 2, "unit": "µM"}]}
{"smiles": "CS(=O)(=O)[C@@H]1CCC[C@H](CN=C=S)C1", "note": "(relative stereo)", "values": [{"measurement": "CD", "setting": "[2]", "result": 0.4, "unit": "µM"}]}
{"smiles": "CSC(=O)CCCCN=C=S", "values": [{"measurement": "CD", "setting": "[2]", "result": 2.8, "unit": "µM"}]}
{"smiles": "CP(C)(=O)CCCCN=C=S", "values": [{"measurement": "CD", "setting": "[2]", "result": 0.4, "unit": "µM"}]}
{"smiles": "O=C(O)CCCCN=C=S", "values": [{"measurement": "CD", "setting": "[2]", "result": 2.2, "unit": "µM"}]}
{"smiles": "CS(=O)(=O)[C@@H]1CCC[C@@H](CN=C=S)C1", "note": "(relative stereo)", "values": [{"measurement": "CD", "setting": "[2]", "result": 0.5, "unit": "µM"}]}
{"smiles": "O[C@@H]1CC2CC1C[C@@H]2N=C=S", "note": "(stereo not given in full)", "values": [{"measurement": "CD", "setting": "[2]", "result": 19, "unit": "µM"}]}
{"smiles": "CS(=O)(=O)[C@H]1CC2CC1C[C@@H]2N=C=S", "note": "(stereo not given in full)", "values": [{"measurement": "CD", "setting": "[2]", "result": 0.7, "unit": "µM"}]}
{"smiles": "CC[S+]([O-])C(=O)N(CCCC[S+](C)[O-])c1ccccc1", "note": "(stereo not given)", "values": [{"measurement": "CD", "setting": "[3]", "result": 43, "unit": "µM"}, {"measurement": "CC50 at 48 h", "setting": "[4]", "result": "> 200", "unit": "µM"}]}
{"smiles": "CC[S+]([O-])C(=O)N(CCCC[S+](C)[O-])Cc1ccc(C(C)(C)C)cc1", "note": "(stereo not given)", "values": [{"measurement": "CD", "setting": "[3]", "result": 3.8, "unit": "µM"}, {"measurement": "CC50 at 48 h", "setting": "[4]", "result": 32, "unit": "µM"}]}
{"smiles": "CS(=O)(=O)[C@H]1CC2CC1[C@H](N=C=S)C2", "note": "(relative stereo)", "values": [{"measurement": "CD", "setting": "[2]", "result": 0.2, "unit": "µM"}]}
{"smiles": "CS(=O)(=O)[C@H]1CC[C@@H](N=C=S)CC1", "values": [{"measurement": "CD", "setting": "[2]", "result": 0.4, "unit": "µM"}]}
{"smiles": "CC(=O)[C@H]1CC2CC1[C@H](N=C=S)C2", "note": "(relative stereo)", "values": [{"measurement": "CD", "setting": "[2]", "result": 0.3, "unit": "µM"}]}
{"smiles": "CCCCCCN=C=S", "values": [{"measurement": "CD", "setting": "[2]", "result": 15, "unit": "µM"}]}
{"smiles": "CC1(C)CC[C@]2(C(=O)O)CC[C@]3(C)[C@H](C(=O)C=C4[C@@]5(C)C=CC(=O)C(C)(C)[C@@H]5CC[C@]43C)[C@@H]2C1", "values": [{"measurement": "pIC50", "setting": "[1]", "result": 6.77}]}
{"smiles": "CC[S+]([O-])C(=O)N(CCCC[S+](C)[O-])Cc1cccc2ccccc12", "note": "(stereo not given)", "values": [{"measurement": "CD", "setting": "[3]", "result": 5.3, "unit": "µM"}, {"measurement": "CC50 at 48 h", "setting": "[4]", "result": "> 50", "unit": "µM"}]}
{"smiles": "COC(=O)CCCCN=C=S", "values": [{"measurement": "CD", "setting": "[2]", "result": 2.8, "unit": "µM"}]}
{"smiles": "CC(=O)[C@@H]1CC2CC1[C@H](N=C=S)C2", "note": "(relative stereo)", "values": [{"measurement": "CD", "setting": "[2]", "result": 0.8, "unit": "µM"}]}
{"smiles": "COC(=O)[C@H]1CC2CC1C[C@@H]2N=C=S", "note": "(stereo not given in full)", "values": [{"measurement": "CD", "setting": "[2]", "result": 0.7, "unit": "µM"}]}
{"smiles": "CC[S+]([O-])C(=O)N(CCCC[S+](C)[O-])C1CC1", "note": "(stereo not given)", "values": [{"measurement": "CD", "setting": "[3]", "result": 43, "unit": "µM"}, {"measurement": "CC50 at 48 h", "setting": "[4]", "result": "> 200", "unit": "µM"}]}
{"smiles": "CC1(C)CC[C@]2(C(=O)O)CC[C@]3(C)[C@H](C(=O)C=C4[C@@]5(C)C=C(C#N)C(=O)C(C)(C)[C@@H]5CC[C@]43C)[C@@H]2C1", "note": "[BARDOXOLONE]", "values": [{"measurement": "pIC50", "setting": "[1]", "result": 9.40}]}
{"smiles": "CS(=O)(=O)[C@@H]1CC2CC1[C@H](N=C=S)C2", "note": "(relative stereo)", "values": [{"measurement": "CD", "setting": "[2]", "result": 1, "unit": "µM"}]}
{"smiles": "CC[S+]([O-])C(=O)N(C)CCCC[S+](C)[O-]", "note": "(stereo not given)", "values": [{"measurement": "CD", "setting": "[3]", "result": 94, "unit": "µM"}, {"measurement": "CC50 at 48 h", "setting": "[4]", "result": "> 200", "unit": "µM"}]}
{"smiles": "CC1(C)CC[C@]2(C(=O)O)CC[C@]3(C)C(=CC(=O)[C@@H]4[C@@]5(C)C=CC(=O)C(C)(C)[C@@H]5CC[C@]43C)[C@@H]2C1", "values": [{"measurement": "pIC50", "setting": "[1]", "result": 5.85}]}
{"smiles": "O=[N+]([O-])[C@H]1CC2CC1C[C@@H]2N=C=S", "note": "(stereo not given in full)", "values": [{"measurement": "CD", "setting": "[2]", "result": 1.1, "unit": "µM"}]}
{"smiles": "CC1(C)CC[C@]2(C(=O)O)CC[C@]3(C)C(=CC[C@@H]4[C@@]5(C)C=CC(=O)C(C)(C)[C@@H]5CC[C@]43C)[C@@H]2C1", "values": [{"measurement": "pIC50", "setting": "[1]", "result": 5.15}]}
{"smiles": "CC[S+]([O-])C(=O)N(CCCC[S+](C)[O-])Cc1ccccc1", "note": "(stereo not given)", "values": [{"measurement": "CD", "setting": "[3]", "result": 13, "unit": "µM"}, {"measurement": "CC50 at 48 h", "setting": "[4]", "result": "> 200", "unit": "µM"}]}
